Data on six compounds can be found in patent EP0440787B1, “COMPOUNDS OF 1,4-BIS(AMINO)BENZO(G)PHTHALAZENE” (CONSEJO SUPERIOR DE INVESTIGACIONES CIENTIFICAS, priority 1989, dated 1990).

Values after ≈ are worked out from the molar mass of the structure shown. Where two headings read alike, the source gives them in different places. Marks after values point to notes of the source that are not given here. Starred links: 1 amine or outer side, 2 acyl side, 3 side chain; linkers in the order of their positions; H or OH if unused. Positions of bridges follow the written chain, without caps; N, C: chain ends. Non-standard residues stand in square brackets, D forms with d. Residues, ends and D or L forms follow the SMILES beside them. Chains are numbered I, II in the order given. Actinocin(9to1) = Cc1c2oc3c(C)ccc(C(=O)[*:1])c3nc-2c(C(=O)[*:2])c(N)c1=O; NMeV = CN[C@H](C(=O)O)C(C)C; Sar = CNCC(=O)O

For series [1] the following is noted: clinical drugs, from reference (12); cited from earlier work.
Series [2] deals with ADLD-clon (from a human malignant melanona). Briefly: Cytostatic and cytocidal activity in vitro, ADLD-clon cell cultures. The format is cell-based. Here is the method:
(§1) The cytostatic and cytocidal activity of BBPh has been evaluated employing HeLa cell lines (from a human uterine cervix carcinoma), ADLD-clon (from a human malignant melanona) and a semicontinuos LMMB cell line (from normal human tonsilar fibroblasts).
(§2) In order to perform both "in vitro" and "in vivo" experiments a concentrated stock solution of BBPh in dimethyl sulfoxide (DMSO) was prepared. From it increasing diluted solutions in McCoy's R5aI grown medium supplemented with 5% human serum, 5% calf serum, 5% fetal bovine serum, 100 IU/mL penicillin, 100 ug/mL streptomycin and 16 ug/mL gentamycin were obtained.
(§3) Serial dilutions of BBPh and the solvent were assayed in cultures seeded 24 hours before on 96-well "Microtiter" plates. The seeding was carried out by depositing 200 µL of cell suspension in growth medium in each well, adjusted to 3 x 10^5/mL HeLa cells, 9 x 10^5/mL ADLD-clon cells or 4 x 10^5/mL LMMB cells.
(§4) The plates with different concentrations of BBPh and control solutions were incubated at 37°C in a humidily saturated air containing 5% CO2.
(§5) Then the plates were fixed and stained to stimate the effects of BBPh under the conditions described by Alvarez (1986) (11) taken Adriamycin as antitumoral compound of reference. […]

Series [3] deals with LMMB cell line (from normal human tonsilar fibroblasts). Briefly: Cytostatic and cytocidal activity in vitro, LMMB normal cell cultures. The format is cell-based. To be noted: Fibroblast. Here is the method: as §1, §2, §3, §4, §5
The subject of series [4] is HeLa cell lines (from a human uterine cervix carcinoma). Put plainly: Cytostatic and cytocidal activity in vitro, HeLa cell cultures. Format: cell-based. On the procedure: as §1, §2, §3, §4, §5
For series [5], the system named is Ehrlich ascites cancer cells. Briefly: In vivo antitumoral activity, subcutaneous transplant of Ehrlich ascites cancer cells in mice. Set-up: species or system swiss mice. On the procedure:
Five groups of six 2-month male swiss mice weighing 25 grams were disposed. Each animal received a transplant of 10^5 Ehrlich ascites cancer cells by the subcutaneous route in the interscapular region. Fourteen days later, when the tumors were evident and measured more than 3 millimeter in diameter, the animals were submitted to the different treatments.
Group 1 received a first intraperitoneal dose of 300 µL of DMSO followed by equal subcutaneous doses, the next three consecutive days.
Group 2 received a single intraperitoneal dose of 100 µg of BBPh solubilized in 300 µL of DMSO, followed by equal subcutaneous doses the next three consecutive days.
Group 3 received a single intraperitoneal dose of 500 µg of BBPh in 300 µL of DMSO.
Group 4 received a single intraperitoneal dose of 1.000 µg of BBPh in 300 µL of DMSO.
Group 5 received a single subcutaneous dose of 4.000 µg BBPh in an oily solution.

For a further series, the system named is T. cruzi. Put plainly: Trypanosomicide activity in vitro in infected NMRI mice blood. The format is cell-based, Trypanosoma cruzi. Conditions: 24 h at 4°C; for N° Tryp/mL: controls Cd 298, Ct 247.
The subject of series [6] is Trichomonas vaginalis (Srain G). Put plainly: microbe, parasite or virus in culture. Conditions: for MCC: read-out: Trichomonacidal activity MCC; for MIC: read-out: Trichomonacidal activity MIC.
Protocol: The cultures of the strains of Trichomonas vaginalis (Srain G) used as experimental model were grown in Diamond Medium (TYM) without agar (100.000 organisms/mL). […] Minimal inhibition concentration (MIC) and Minimal cytocidal concentration (MCC) were established in accordance with the definitions proposed by Escario et al. (19).
Series [7] is described as follows: 50 per 100 lethal dose (LD50) of BBPh and toxicity in mice. The format is in vivo. To be noted: DMSO as solvent.
The next series in a line: pKa of BBPh. Format: physicochemical. The source says:
Some anticancer drugs such as mitomycin C and antinomycin D which interact with nucleic acids have shown activity against Trypanosoma cruzi (16). […] Following a similar behaviour the 1,4-bis(buthylamino)benzo[g] phthalazine (BBPh) which is able to form 1,4-bis(buthylamino) benzo[g]phthalazinium cations at physiological PH (PKa of BBPh = 8.6) and is a potential intercalating agent has shown both, antineoplasic and trypanosomicide activities.

[8] abbreviates: group 5: BBPh in oily solution 1 x 4.0 mg s.c. (160 mg/kg).
Where [9] appears, read: overall dose 40 mg/Kg: single i.p. dose of 1.0 mg in DMSO.

Take `Cc1c2oc3c(C)ccc(C(=O)N[C@@H]4C(=O)N[C@H](C(C)C)C(=O)N5CCC[C@H]5C(=O)N(C)CC(=O)N(C)[C@@H](C(C)C)C(=O)O[C@@H]4C)c3nc-2c(C(=O)N[C@@H]2C(=O)N[C@H](C(C)C)C(=O)N3CCC[C@H]3C(=O)N(C)CC(=O)N(C)[C@@H](C(C)C)C(=O)O[C@@H]2C)c(N)c1=O` [Actinomicin D] (I: T[dV]P[Sar][NMeV] / II: T[dV]P[Sar][NMeV]; ester I:1-I:C, II:1-II:C; linker I:N-II:N via Actinocin(9to1)): the 50% lethal dose (LD50) in series [1] was 0.095 mg/kg.
As to `COc1cccc2c1C(=O)c1c(O)c3c(c(O)c1C2=O)C[C@@](O)(C(=O)CO)C[C@@H]3O[C@H]1C[C@H](N)[C@H](O)[C@H](C)O1` [Adriamycin, reference compound], the IC50 amounted to 0.33 µg/mL (≈ 0.607 µM) in series [2] (read-out: ID50), 0.07 µg/mL (≈ 0.129 µM) in series [3] (read-out: ID50) and 0.33 µg/mL (≈ 0.607 µM) in series [4] (read-out: ID50).
With `CCCCNc1nnc(NCCCC)c2cc3ccccc3cc12` [BBPh, 1,4-bis(n-butylamino)benzo[g]phthalazine], the IC50 was determined as 0.67 µg/mL (≈ 2.08 µM) in series [2] (ADLD-clon, concentration producing death or growth inhibition of 50% of the cells, read-out: ID50 (the source's name)); 1.08 µg/mL (≈ 3.35 µM) in series [3] (LMMB normal cells, concentration producing death or growth inhibition of 50% of the cells, read-out: ID50 (the source's name)); 0.67 µg/mL (≈ 2.08 µM) in [4] (concentration producing death or growth inhibition of 50% of the cells, read-out: ID50 (the source's name)). Moreover, the T/S in series [5] (group 2: BBPh in DMSO 1 x 0.1 mg i.p. + 3 x 0.1 mg s.c.) is on record as 6/5; in series [5] (setting [8]) it was 5/5. Further, the “SURVIVAL(DAYS) MST” value in series [5] (group 2: BBPh in DMSO 1 x 0.1 mg i.p. + 3 x 0.1 mg s.c., DMSO control 59) was found to be 84 days; in [5] (setting [8]), 86 days. Besides, the Toxic death is given as 1/6 in [5] (overall dose 16 mg/Kg: 0.1 mg i.p. then similar s.c. doses next three days, DMSO); 4/6 in series [5] (overall dose 20 mg/Kg: single i.p. dose of 0.5 mg in DMSO); 6/6 in [5] (setting [9]). Further, the “T/C (%)” value in series [5] (overall dose 16 mg/Kg: 0.1 mg i.p. then similar s.c. doses next three days, DMSO, active when > 125%) is 142^f %; in series [5] (overall dose 20 mg/Kg: single i.p. dose of 0.5 mg in DMSO, active when > 125%), 161^f %; in [5] (setting [9]) it was “Toxic”. For the same compound, the “TST” value in [5] (overall dose 16 mg/Kg: 0.1 mg i.p. then similar s.c. doses next three days, DMSO, control 59) is 84 days; in series [5] (overall dose 20 mg/Kg: single i.p. dose of 0.5 mg in DMSO, control 59) it was 96 days; in [5] (setting [9]), 1 days. The “N° Tryp/mL” value with T. cruzi (BBPh 75 µg/mL), in the series with T. cruzi (BBPh 125 µg/mL), with T. cruzi (BBPh 250 µg/mL), in the series with T. cruzi (BBPh 500 µg/mL) and in the series with T. cruzi (BBPh 1000 µg/mL) was 0 Tryp/mL in each case. For the same compound, in the series with T. cruzi (all samples, 1000 to 75 ug/mL), the parasitemia result was “negative parasitemia”. In addition, in series [6], the MCC lay within 10 to 25 µg/mL. Besides, the MIC in series [6] lay in the range of 5 to 10 µg/mL (≈ 15.5 to 31 µM). Moreover, in [7] (i.p., single dose of 20 mg/Kg), the toxicity entry is “toxic”. The median lethal dose (LD50) in series [7] (mouse, in vivo, ip, BBPh) was determined as 12 mg/kg. Moreover, the pKa in “pKa of BBPh” came to 8.6.
In the case of `COc1cccc2c1C(=O)c1c(O)c3c(c(O)c1C2=O)C[C@@](O)(C(C)=O)C[C@@H]3O[C@H]1C[C@H](N)[C@H](O)[C@H](C)O1` [Daunomycin], the LD50 in [1] is 9.2 mg/kg.
As for `Cc1ncc([N+](=O)[O-])n1CCO` [Metronidazole, reference compound], in series [6], the MCC is 8 µg/mL and the MIC was in the range of 4 to 8 µg/mL (≈ 23.4 to 46.7 µM).
For the compound `CC[C@]1(O)C[C@H]2CN(CCc3c([nH]c4ccccc34)[C@@](C(=O)OC)(c3cc4c(cc3OC)N(C=O)[C@H]3[C@@](O)(C(=O)OC)[C@H](OC(C)=O)[C@]5(CC)C=CCN6CC[C@]43[C@@H]65)C2)C1` [Vincristine], the LD50 in [1] is 4.5 mg/kg.
